Test results: patent publication US12195427B2, “MASP-2 inhibitors and methods of use” (priority 2018, dated 2025)
Counter-ions that a name gives are not always drawn.

Target: MASP-2 CCP2-SP (Homo sapiens (Human), UniProt O00187)
Experiment: MASP-2 co-crystallization, X-ray crystallography and structure analysis (H-bonds, van der Waals contacts);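 for Ligand-pharmacophore element distance, pharmacophore element C2: distance from averaged pharmacophore element to bound ligand; missing value means element absent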;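 for Ligand-pharmacophore element distance, pharmacophore element C3: distance from averaged pharmacophore element to bound ligand; missing value means element absent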;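 for Ligand-pharmacophore element distance, pharmacophore element C4: distance from averaged pharmacophore element to bound ligand; missing value means element absent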;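 for Ligand-pharmacophore element distance, pharmacophore element C5: distance from averaged pharmacophore element to bound ligand; missing value means element absent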
Parameters: van der Waals contact distance, MASP-2 HIS 483 atom CD2 / van der Waals contact distance, MASP-2 HIS 483 atom NE2 / van der Waals contact distance, SER 654 C to compound atom / van der Waals contact distance, SER 654 O to compound atom / van der Waals contact distance, TRP 655 C to compound atom / van der Waals contact distance, MASP-2 GLY 528 atom CA / van der Waals contact distance TRP 655 atom CZ3 / van der Waals contact distance TRP 655 atom N / van der Waals contact distance TRP 655 atom CE3 / van der Waals contact distance GLY 656 atom C / van der Waals contact distance GLY 656 atom CA / van der Waals contact distance GLY 656 atom O / van der Waals contact distance, MASP-2 TYR 607 atom CD1 / van der Waals contact distance, MASP-2 PRO 606 atom O / d(C3,CA1) / d(CA1,N1)2 / d(H4,O1) / d(H4,O2) / d(O1,O2) / d(CA1,O2) / d(CA6,O1) / d(CA6,O2) / d(CA1,C5) / d(O2,H3) / d(N2,C2) / d(CA5,N2) / d(N2,C4) / d(N2,C6) / d(N2,CA3) / d(N2,O3) / d(O4,H2): unit not given beside the values
Conditions: for Ligand-pharmacophore element distance, pharmacophore element C2 / Ligand-pharmacophore element distance, pharmacophore element C3 / Ligand-pharmacophore element distance, pharmacophore element C4 / Ligand-pharmacophore element distance, pharmacophore element C5 / Ligand-pharmacophore element distance, pharmacophore element C6 / Ligand-pharmacophore element distance, pharmacophore element C7 / Ligand-pharmacophore element distance, pharmacophore element CA1 / Ligand-pharmacophore element distance, pharmacophore element CA2 / Ligand-pharmacophore element distance, pharmacophore element CA3 / Ligand-pharmacophore element distance, pharmacophore element CA4 / Ligand-pharmacophore element distance, pharmacophore element CA5 / Ligand-pharmacophore element distance, pharmacophore element CA6: Table A4-1
Summary of the method: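 Inhibitor complexes were obtained by soaking crystals of E. coli-expressed human MASP-2 CCP2-SP constructs, then flash-cooling in liquid nitrogen. Structures solved by molecular replacement (1Q3X search model) from synchrotron diffraction; where several poses existed, only one was analyzed, and nonbonded contacts listed can include H-bonds.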

[1] = Table A5-1 pharmacophore: distance between elements, S2/S1 region
[2] = Table A5-2 pharmacophore distance, S3/S4 region
[3] = Table A7-1, between pharmacophore elements of the bound compound
[4] = Table A7-2, between pharmacophore elements of the bound compound

MASP-2 CCP2-SP, sequence (O00187 445-686): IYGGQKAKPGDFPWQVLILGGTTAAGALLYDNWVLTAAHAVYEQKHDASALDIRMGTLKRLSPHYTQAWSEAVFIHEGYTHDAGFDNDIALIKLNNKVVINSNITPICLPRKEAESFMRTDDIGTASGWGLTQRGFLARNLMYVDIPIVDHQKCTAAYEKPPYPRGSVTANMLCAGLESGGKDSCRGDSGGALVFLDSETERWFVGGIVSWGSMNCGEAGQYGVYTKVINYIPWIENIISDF
MASP-2 CCP2-SP, sequence (O00187 364-432 partner): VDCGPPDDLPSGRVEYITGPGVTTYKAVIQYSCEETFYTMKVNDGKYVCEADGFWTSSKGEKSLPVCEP

Cc1cccc([C@H]2CN[C@@H](C(=O)N[C@@H](C)C(=O)NCc3ccc(N)nc3C)C2)c1 [compound 1257, (2R,4S)—N—((S)-1-(((6-Amino-2-methylpyridin-3-yl)methyl)amino)-1-oxopropan-2-yl)-4-(m-tolyl)pyrrolidine-2-carboxamide Dihydrochloride]
H-bond distance to MASP-2 GLY 656 atom O (Table A1 (H-Bonds), GLY 656 O): 2.82 | H-bond distance to MASP-2 SER 628 atom O (Table A1 (H-Bonds), SER 628 O): 3.12 | H-bond distance to MASP-2 SER 654 atom O (Table A1 (H-Bonds), SER 654 O): 3.02 | H-bond distance to MASP-2 SER 657 atom O (Table A1 (H-Bonds), SER 657 O): 2.86 | van der Waals contact distance, MASP-2 HIS 483 atom CD2 (Table A2-1): 3.7 | van der Waals contact distance, MASP-2 HIS 483 atom NE2 (Table A2-1): 3.72 | van der Waals contact distance, MASP-2 PHE 529 atom CD1 (Table A2-3): 3.89 | van der Waals contact distance, MASP-2 PRO 606 atom O (Table A2-4): 3.38 | van der Waals contact distance, MASP-2 amino acid atom to compound atom (Table A2-5: TYR 607 (CE1, CE2, OH), PRO 608 (CD, CG), SER 611 (CA)): 3.8 | van der Waals contact distance, MASP-2 amino acid atom to compound atom (Table A2-9, ARG 630, AA atoms CG, CZ): 3.53 | van der Waals contact distance, VAL 653 CG1 to compound atom (Table A2-11): 3.36 | van der Waals contact distance, SER 654 O to compound atom (Table A2-12): 3.73 | van der Waals contact distance, TRP 655 CA to compound atom (Table A2-12): 3.57 | van der Waals contact distance TRP 655 atom CE3 (Table A2-13, MASP-2 TRP 655 CE3, compound atom in line below): 3.87 | van der Waals contact distance TRP 655 atom CZ3 (Table A2-13, MASP-2 TRP 655 CZ3): 3.77 | van der Waals contact distance, MASP-2 amino acid atom to compound atom (Table A2 section before Table A2-8): 3.86 | Ligand-pharmacophore element distance, pharmacophore element C2: 0 | Ligand-pharmacophore element distance, pharmacophore element C3: 0.1 | Ligand-pharmacophore element distance, pharmacophore element C4: 0 | Ligand-pharmacophore element distance, pharmacophore element C5: 0 | Ligand-pharmacophore element distance, pharmacophore element C6: 0.53 | Ligand-pharmacophore element distance, pharmacophore element C7: 0 | Ligand-pharmacophore element distance, pharmacophore element CA1: 0.65 | Ligand-pharmacophore element distance, pharmacophore element CA2: 0 | Ligand-pharmacophore element distance, pharmacophore element CA3: 0 | Ligand-pharmacophore element distance, pharmacophore element CA4: 0 | Ligand-pharmacophore element distance, pharmacophore element CA5: 1.2 | Ligand-pharmacophore element distance, pharmacophore element CA6: 0 | d(C3,CA1) [1]: 2.87 | d(CA1,N1)2 [1]: 1.35 | d(CA1,O1) [1]: 4.45 | d(CA1,O2) [1]: 4.03 | d(H4,O1) [1]: 4.43 | d(H4,O2) [1]: 3.84 | d(O1,O2) [1]: 3.61 | d(CA5,N2) [2]: 5.09 | d(N2,C6) [2]: 6.64 | d(O2,H3) [2]: 2.18 | d(O2,N2) [2]: 2.71 | a(C3, CA1, O1) (Table A6-1 pharmacophore angle): 150.46 | a(CA1, O1, O2) (Table A6-1 pharmacophore angle): 109.00 | a(O1, O2, H4) (Table A6-1 pharmacophore angle): 128.83 | a(N1, CA1, O1) b) (Table A6-1 pharmacophore angle, Methyl-amino-pyridine compounds): 174.64 | a(O1, O2, H3) (Table A6-2 pharmacophore angle): 132.63 | a(O1, O2, N2) (Table A6-2 pharmacophore angle): 141.45 | a(O2, N2, C6) (Table A6-2 pharmacophore angle): 105.30 | Pharmacophore torsion angle a(C3, CA1, O1, H4) [3]: 30.77 | Pharmacophore torsion angle a(H4, O1, O2, H3) [3]: 108.60 | Pharmacophore torsion angle a(H4, O1, O2, N2) [3]: 132.94 | Pharmacophore torsion angle a(N1, CA1, O1, H4) [3]: 11.94 | Pharmacophore torsion angle a(O1, H4, O2, CA1) [3]: −83.51 | Pharmacophore torsion angle a(O1, O2, N2, C6) [4]: 146.13 | Pharmacophore torsion angle a(O1, O2, N2, CA5) [4]: 134.25

C[C@H](NC(=O)[C@H]1C[C@@H](c2ccccc2)CCN1)C(=O)NCc1cc(Cl)ccc1O.Cl [1078_2]
Ligand-pharmacophore element distance, pharmacophore element C2: 0.61 | Ligand-pharmacophore element distance, pharmacophore element C3: 0 | Ligand-pharmacophore element distance, pharmacophore element C4: 0 | Ligand-pharmacophore element distance, pharmacophore element C5: 0.46 | Ligand-pharmacophore element distance, pharmacophore element C6: 0 | Ligand-pharmacophore element distance, pharmacophore element C7: 0 | Ligand-pharmacophore element distance, pharmacophore element CA1: 1.55 | Ligand-pharmacophore element distance, pharmacophore element CA2: 0.61 | Ligand-pharmacophore element distance, pharmacophore element CA3: 0 | Ligand-pharmacophore element distance, pharmacophore element CA4: 0 | Ligand-pharmacophore element distance, pharmacophore element CA5: 0 | Ligand-pharmacophore element distance, pharmacophore element CA6: 0 | d(CA1,C5) [1]: 3.12 | d(CA1,O1) [1]: 4.69 | d(CA1,O2) [1]: 4.62 | d(CA1,O4) [1]: 2.75 | d(H4,O1) [1]: 2.19 | d(H4,O2) [1]: 2.44 | d(O1,O2) [1]: 3.25 | d(O4,H2) [1]: 0.97 | d(N2,C2) [2]: 1.44 | d(N2,CA2) [2]: 5.72 | d(O2,H3) [2]: 2.53 | d(O2,N2) [2]: 2.72 | a(C5, CA1, O1) (Table A6-1 pharmacophore angle): 159.94 | a(CA1, O1, O2) (Table A6-1 pharmacophore angle): 109.26 | a(CA1, O4, H2) (Table A6-1 pharmacophore angle): 128.74 | a(O1, CA1, O4) (Table A6-1 pharmacophore angle): 65.74 | a(O1, O2, H4) (Table A6-1 pharmacophore angle): 91.16 | a(O1, O2, H3) (Table A6-2 pharmacophore angle): 141.98 | a(O1, O2, N2) (Table A6-2 pharmacophore angle): 146.00 | a(O2, N2, C2) (Table A6-2 pharmacophore angle): 128.07 | a(O2, N2, CA2) (Table A6-2 pharmacophore angle): 155.89 | Pharmacophore torsion angle a(C5, CA1, O1, H4) [3]: 38.04 | Pharmacophore torsion angle a(H4, O1, O2, H3) [3]: −132.87 | Pharmacophore torsion angle a(H4, O1, O2, N2) [3]: −119.25 | Pharmacophore torsion angle a(O1, H4, O2, CA1) [3]: −57.88 | Pharmacophore torsion angle a(O1, O2, N2, C2) [3]: 127.17 | Pharmacophore torsion angle a(O1, O2, N2, CA2) [4]: 137.47
